The supplement of paper PMC11061612

What was measured:
[1] = tested on: HPAF-II (Pancreatic Carcinoma); assay: combination Emax (second highest fraction inhibited in the dose matrix, 72 h); higher = more inhibition; extreme values may be limits of the assay
Outline: (§1)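 Bliss excess equals the observed combination effect minus the expected value EA + EB − EA·EB, where EA and EB are the effects of each agent alone. Combination Emax is the second-highest inhibition within the matrix. Inhibition was scaled from CellTiter-Glo 2.0 luminescence, with 0 set by vehicle wells and 1 by blank wells, after 72 hours of two-drug dosing of cells plated in 1536-well plates.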

[2] = tested on: HT-1080 (Other Solid Carcinomas); assay: Bliss excess, mean over the matrix (fraction); higher = more synergy
Outline: as §1

[3] = tested on: SNU-407 (Colorectal Carcinoma); assay: as above
Outline: as §1

[4] = tested on: T84 (Colorectal Carcinoma); assay: as above
Outline: as §1

[5] = tested on: PA-TU-8988T (Pancreatic Carcinoma); assay: as above
Outline: as §1

[6] = tested on: MM1S (Plasma Cell Myeloma); assay: as above
Outline: as §1

IST-MEL1 (Melanoma) = assay: as above
Outline: as §1

[7] = tested on: PL4 (Pancreatic Carcinoma); assay: as above
Outline: as §1

[8] = tested on: BxPC-3 (Pancreatic Carcinoma); assay: as above
Outline: as §1

[9] = tested on: SAT (Head and Neck Carcinoma); assay: as above
Outline: as §1

[10] = tested on: HPAF-II (Pancreatic Carcinoma); assay: as above
Outline: as §1

KALS-1 (Glioblastoma) = assay: as above
Outline: as §1

[11] = tested on: TUR (Acute Myeloid Leukemia); assay: as above
Outline: as §1

T47D (Breast Carcinoma) = assay: as above
Outline: as §1

NCI-H226 (Mesothelioma) = assay: as above
Outline: as §1

UACC-257 (Melanoma) = assay: as above
Outline: as §1

Row | Compound | combination Emax [1] | Bliss excess [2] | Bliss excess [3] | Bliss excess [4] | Bliss excess [5] | Bliss excess [6] | Bliss excess (IST-MEL1 (Melanoma)) | Bliss excess [7] | Bliss excess [8] | Bliss excess [9] | Bliss excess [10] | Bliss excess (KALS-1 (Glioblastoma)) | Bliss excess [11] | Bliss excess (T47D (Breast Carcinoma)) | Bliss excess (NCI-H226 (Mesothelioma)) | Bliss excess (UACC-257 (Melanoma))
1 | COc1nnc2ccc(N3CCC(c4ccc(OCCN5CCN(C)C(=O)[C@H]5C)cc4)CC3)nn12 [AZD5153] + CCN(CCO)CCCOc1ccc2c(Nc3cc(CC(=O)Nc4cccc(F)c4)[nH]n3)ncnc2c1 [AZD2811] (first compound max 1 µM, 7x7, partner max 1 µM) | 0.379 | 0.0036 | -0.0476 | -0.0536 | 0.0086 | 0.106 | -0.0196 | -0.0333 | -0.0244 | -0.0368 | 0.0072 | -0.0911 | 0.131 | -0.0182 | -0.0697 | 0.0076
2 | COc1nnc2ccc(N3CCC(c4ccc(OCCN5CCN(C)C(=O)[C@H]5C)cc4)CC3)nn12 [AZD5153] + Cn1cnc2c(F)c(Nc3ccc(Br)cc3Cl)c(C(=O)NOCCO)cc21 [Selumetinib] (first compound max 1 µM, 7x7, partner max 10 µM) | 0.868 | 0.0587 | -0.0175 | -0.0588 | 0.0423 | 0.109 | 0.0304 | -0.0089 | -0.0864 | 0.002 | 0.0634 | -0.0421 | -0.0567 | 0.0101 | -0.045 | 0.0284
3 | CC(=O)c1c(C)c2cnc(Nc3ccc(N4CCNCC4)cn3)nc2n(C2CCCC2)c1=O [Palbociclib] + Cc1c2c(nn1C)CSCc1cc(n(C)n1)CSc1cc(c3ccccc3c1)OCCCc1c(C(=O)O)n(C)c3c-2c(Cl)ccc13 [AZD5991] (first compound max 10 µM, 7x7, partner max 1 µM) | 0.142 | -0.0592 | -0.0968 | -0.0578 | -0.0361 | -0.0482 | -0.0328 | -0.0458 | -0.0528 | -0.0367 | -0.0186 | -0.0609 | -0.0441 | 0.0375 | -0.0287 | -0.026
4 | NC1(C(=O)N[C@@H](CCO)c2ccc(Cl)cc2)CCN(c2ncnc3[nH]ccc23)CC1 [Capivasertib] + CC(C)n1c(=O)n(C)c2cnc3cc(F)c(-c4ccc(OCCCN5CCCCC5)nc4)cc3c21 [AZD1390] (first compound max 10 µM, 7x7, partner max 0.3 µM) | 0.245 | -0.0504 | -0.0261 | -0.0417 | -0.0434 | -0.0204 | -0.0392 | -0.0225 | -0.0361 | -0.0275 | -0.0016 | -0.054 | -0.0704 | -0.0476 | -0.0484 | -0.0358
5 | COc1nnc2ccc(N3CCC(c4ccc(OCCN5CCN(C)C(=O)[C@H]5C)cc4)CC3)nn12 [AZD5153] + C=CCn1c(=O)c2cnc(Nc3ccc(N4CCN(C)CC4)cc3)nc2n1-c1cccc(C(C)(C)O)n1 [AZD1775] (first compound max 1 µM, partner max 1 µM) | 0.449 | -0.0362 | -0.0278 | -0.0643 | -0.0738 | -0.0412 | -0.0398 | 0.0251 | -0.028 | -0.0305 | -0.0147 | -0.12 | -0.0252 | -0.0262 | -0.0349 | 0.0034
6 | COc1nnc2ccc(N3CCC(c4ccc(OCCN5CCN(C)C(=O)[C@H]5C)cc4)CC3)nn12 [AZD5153] + CC1(C)CCC(CN2CCN(c3ccc(C(=O)NS(=O)(=O)c4ccc(NCC5CCOCC5)c([N+](=O)[O-])c4)c(Oc4cnc5[nH]ccc5c4)c3)CC2)=C(c2ccc(Cl)cc2)C1 [Venetoclax] (first compound max 1 µM, 7x7, partner max 1 µM) | 0.365 | -0.0216 | -0.0217 | -0.0874 | -0.0254 | -0.0394 | -0.0812 | 0.0064 | -0.0745 | -0.0525 | -0.0057 | -0.0418 | -0.0224 | -0.0713 | -0.0192 | -0.0555
7 | Cn1cnc2c(F)c(Nc3ccc(Br)cc3Cl)c(C(=O)NOCCO)cc21 [Selumetinib] + C=CCn1c(=O)c2cnc(Nc3ccc(N4CCN(C)CC4)cc3)nc2n1-c1cccc(C(C)(C)O)n1 [AZD1775] (first compound max 10 µM, partner max 1 µM) | 0.728 | -0.0299 | 0.0099 | -0.0495 | -0.0202 | -0.0433 | 0.0242 | -0.0685 | 0.0243 | -0.0151 | 0.039 | -0.0755 | -0.0146 | -0.0179 | -0.0331 | 0.0014
8 | C[C@@H](c1ccc2nccn2c1)n1nnc2ncc(-c3cnn(C)c3)nc21 [Savolitinib] + Cc1c2c(nn1C)CSCc1cc(n(C)n1)CSc1cc(c3ccccc3c1)OCCCc1c(C(=O)O)n(C)c3c-2c(Cl)ccc13 [AZD5991] (first compound max 1 µM, 7x7, partner max 1 µM) | 0.125 | -0.0475 | -0.0396 | -0.0652 | -0.0205 | 0.021 | -0.0243 | -0.0492 | -0.0496 | -0.0558 | -0.0163 | -0.0411 | 0.0026 | -0.0426 | -0.04 | -0.0194
9 | Cc1nc(Nc2ncc(C(=O)Nc3c(C)cccc3Cl)s2)cc(N2CCN(CCO)CC2)n1 [Dasatinib] + CC(=O)Nc1cccc(-n2c(=O)n(C3CC3)c(=O)c3c(Nc4ccc(I)cc4F)n(C)c(=O)c(C)c32)c1 [Trametinib] (first compound max 2 µM, 7x7, partner max 1 µM) | 0.928 | 0.0472 | 0.0332 | -0.0174 | 0.136 | -0.0089 |  | -0.0056 | 0.0009 | -0.0712 | 0.0843 | -0.0046 | -0.0919 | -0.0855 | 0.027 | -0.0926
10 | NC1(C(=O)N[C@@H](CCO)c2ccc(Cl)cc2)CCN(c2ncnc3[nH]ccc23)CC1 [Capivasertib] + COc1nnc2ccc(N3CCC(c4ccc(OCCN5CCN(C)C(=O)[C@H]5C)cc4)CC3)nn12 [AZD5153] (first compound max 10 µM, 7x7, partner max 1 µM) | 0.389 | -0.0558 | -0.0269 | -0.0695 | -0.0603 | 0.0564 | -0.0143 | -0.0138 | -0.0336 | -0.0508 | 0.0188 | -0.0749 | 0.0661 | 0.0139 | -0.0165 | -0.0072
11 | C[C@@H](c1ccc2nccn2c1)n1nnc2ncc(-c3cnn(C)c3)nc21 [Savolitinib] + CC1(C)CCC(CN2CCN(c3ccc(C(=O)NS(=O)(=O)c4ccc(NCC5CCOCC5)c([N+](=O)[O-])c4)c(Oc4cnc5[nH]ccc5c4)c3)CC2)=C(c2ccc(Cl)cc2)C1 [Venetoclax] (first compound max 1 µM, 7x7, partner max 1 µM) | 0.131 | -0.0676 | -0.0299 | -0.0649 | -0.0763 | -0.0663 | -0.0306 | -0.105 | -0.0371 | -0.131 | -0.018 | -0.0571 | -0.0452 | -0.0753 | -0.0342 | -0.0766
12 | COc1nnc2ccc(N3CCC(c4ccc(OCCN5CCN(C)C(=O)[C@H]5C)cc4)CC3)nn12 [AZD5153] + Cc1c2c(nn1C)CSCc1cc(n(C)n1)CSc1cc(c3ccccc3c1)OCCCc1c(C(=O)O)n(C)c3c-2c(Cl)ccc13 [AZD5991] (first compound max 1 µM, 7x7, partner max 1 µM) | 0.35 | -0.0668 | -0.0996 | -0.0524 | 0.005 | 0.15 | -0.0116 | -0.0242 | -0.015 | 0.0109 | -0.0124 | 0.0141 | 0.0507 | 0.0003 | -0.0209 | -0.019
13 | C=CCn1c(=O)c2cnc(Nc3ccc(N4CCN(C)CC4)cc3)nc2n1-c1cccc(C(C)(C)O)n1 [AZD1775] + C1CN(CCC1(C(=O)N[C@@H](CCO)C2=CC=C(C=C2)Cl)N)C3=NC=NC4=C3C=CN4 [Capivasertib] (first compound max 3 µM, partner max 3 µM) | 0.605 | -0.0086 | -0.027 | -0.0807 | -0.0264 | 0.0171 |  | -0.0549 | -0.0227 | -0.0616 | -0.096 | -0.0806 | 0.0434 | -0.031 | -0.0662 | -0.0383
14 | CN(C)CCCOc1ccc(-c2ccc3ncc4c(c3c2)n(C2CCOCC2)c(=O)n4C)cn1 [AZD0156] + O=C(c1cc(Cc2n[nH]c(=O)c3ccccc23)ccc1F)N1CCN(C(=O)C2CC2)CC1 [Olaparib] (first compound max 3 µM, partner max 3 µM) | 0.25 | -0.0054 | -0.0122 | -0.0535 | 0.0235 | 0.0231 | 0.0034 | 0.018 | -0.0342 | -0.0346 | -0.0048 | -0.0235 | 0.0469 | 0.0296 | -0.0594 | -0.0055
15 | COc1cccc(OCCCN)c1-c1cc(Nc2cnc(C#N)cn2)n[nH]1 [Prexasertib] + Cc1cc2ncnn2cc1Nc1ncc2c(n1)n(C1CCOCC1)c(=O)n2C [AZD7648] (first compound max 1 µM, 7x7, partner max 10 µM) |  | 0.0234 | 0.0252 | -0.0904 | 0.0389 | -0.0108 | -0.0046 | 0.0048 | -0.0908 | -0.0294 |  | -0.0363 | -0.0005 | -0.0055 | -0.0568 | -0.0111
16 | CCN(CCO)CCCOc1ccc2c(Nc3cc(CC(=O)Nc4cccc(F)c4)[nH]n3)ncnc2c1 [AZD2811] + C[C@@H]1COCCN1C2=NC(=NC(=C2)C3(CC3)[S@](=N)(=O)C)C4=C5C=CNC5=NC=C4 [AZD6738] (first compound max 1 µM, 7x7, partner max 10 µM) |  | -0.0375 | -0.094 | -0.0103 | 0.0002 | 0.0151 | -0.0456 | -0.0171 | -0.0352 | -0.0581 |  | -0.038 | 0.019 | -0.0493 | -0.069 | -0.0649
17 | CC1(C)CCC(CN2CCN(c3ccc(C(=O)NS(=O)(=O)c4ccc(NCC5CCOCC5)c([N+](=O)[O-])c4)c(Oc4cnc5[nH]ccc5c4)c3)CC2)=C(c2ccc(Cl)cc2)C1 [Venetoclax] + C1CN(CCC1(C(=O)N[C@@H](CCO)C2=CC=C(C=C2)Cl)N)C3=NC=NC4=C3C=CN4 [Capivasertib] (first compound max 1 µM, 7x7, partner max 3 µM) |  | -0.0351 | -0.0204 | -0.0518 | 0.0237 | -0.0028 | -0.0762 | -0.0363 | -0.0171 | -0.0422 |  | -0.0501 | -0.0176 | -0.0113 | -0.0673 | -0.0707
